As a reminder, the IC50 is the point on the concentration scale where inhibition reaches its midpoint. A low value points to inhibition by little substance. As a reminder, the inhibition is the percentage by which the read-out fell short of the control.

The values below come from article PMC8286840, “Identifying SARS-CoV-2 antiviral compounds by screening for small molecule inhibitors of Nsp3 papain-like protease” (Biochemical Journal, 2021).

Structures are written as SMILES. “And” between values parts separate entries of the source, which are not always exact repeats. Equal values may be shown once. “Also recorded” adds a separate entry of the source. Where a name gives a salt, the structure may show the parent alone. Read-outs that look alike come from different tables or passages of the source. Bounds are passed on as bounds.

Series [1] addresses T1, SARS-CoV-2 PLpro (nsp3 1564–1878) (Severe acute respiratory syndrome coronavirus 2, UniProt P0DTD1). The series is described as follows: biochemical. The following applies: for Normalized activity High (3.75 µM) / Normalized activity Low (1.25µM): normalized to control without compound; for IC50: fluorescent-based assay; for inhibition at 1.25 µM: read-out: Inhibition (%) 1.25 µM; for inhibition at 3.75 µM: read-out: Inhibition (%) 3.75 µM. Type of series: biochemical.

Series [2] deals with T2, SARS-CoV-2 PLpro (Severe acute respiratory syndrome coronavirus 2, UniProt P0DTD1). Type of series: biochemical. The note with it: 3.75 µM and 10 µM compound, 0.5 µM enzyme, 5 h RT.
In a further series the target is 3CLpro (nsp5) (Severe acute respiratory syndrome coronavirus 2, UniProt P0DTD1). The format is biochemical, SARS-CoV-2.
For series [3], the target named is T2, SARS-CoV-2 PLpro. The format is biochemical. The following applies: 10 µM inhibitor, 50 nM PLpro, 1 µM substrate, 1 h 25°C.
For series [4], the target named is T2, SARS-CoV-2 PLpro. Type of series: biochemical. The following applies: 10 µM inhibitor, 50 nM PLpro, 1 µM substrate, 1 h 25°C. The source holds these as a separate data set.
The subject of a further series is SARS-CoV-2. Put plainly: microbe, parasite or virus in culture. The format is cell-based.
Series [5] concerns the target T1, SARS-CoV-2 PLpro (nsp3 1564–1878). The series is described as follows: biochemical. The following applies: low concentration screen, read-out: % of control remaining. Details: FRET-quenched peptide (Pro3) cleavage by PLpro, 10 min pre-incubation, slope over 20 min, normalised to no-compound control.
Series [6] shares this target. The series is described as follows: biochemical. The note with it: high concentration screen, read-out: % of control remaining. Also on record: FRET-quenched peptide (Pro3) cleavage by PLpro, 10 min pre-incubation, slope over 20 min, normalised to no-compound control.
In another series the test system is PLpro from SARS-CoV-1. The note with it: cited from earlier work.
The mark [7] stands for this setting: screen, 1.25 µM compound, 1.75 µM enzyme, 20 µM substrate.
Setting [8] is: screen, 1.25 µM compound, number after the slash is the control without compound.
[9] abbreviates: screen, 3.75 µM compound, 1.75 µM enzyme, 20 µM substrate.
The mark [10] stands for this setting: screen, 3.75 µM compound, number after the slash is the control without compound.
The mark [11] stands for this setting: Severe acute respiratory syndrome coronavirus 2, Vero C1008, VERO E6 cells, compound alone, read-out: EC50 viral proliferation.

For `Cn1c(=O)c2[nH]c(-c3ccc(S(=O)(=O)O)cc3)nc2n(C)c1=O` [8-(p-Sulfophenyl)theophylline], in [1] (screen, Table S1), the Z score is listed as -14.155, the “Normalized activity High (3.75 µM)” value is on record as 0 and the “Normalized activity Low (1.25µM)” value is given as 0.9534.

In the case of `CC[C@@H]1Cc2cc(O)ccc2C2=C1c1ccc(O)cc1C[C@H]2CC` (relative stereo) [(R,R)-cis-Diethyl tetrahydro-2,8-chrysenediol], in series [1] (screen, Table S1), the Z score is -14.155, the “Normalized activity High (3.75 µM)” value is listed as 0 and the “Normalized activity Low (1.25µM)” value is on record as 0.8033.

With `Cc1cc2nc3c(=O)[nH]c(=O)nc-3n(C)c2cc1C=O` [Ro 08-2750, 2,3,4,10-Tetrahydro-7,10-dimethyl-2,4-dioxobenzo[g]pteridine-8-carboxaldehyde], the IC50 in series [1] is 0.53 µM and 0.531 µM. Moreover, in series [1] (screen hits, Table 1), the Z score was −5.79. Moreover, the inhibition at 1.25 µM in series [1] (setting [7]) came to 19%. For the same compound, the “slope value (of slope value/control) 1.25 µM” value in series [1] (setting [8]) was 366. The inhibition at 3.75 µM in [1] (setting [9]) was determined as 42%. Moreover, the “slope value (of slope value/control) 3.75 µM” value in [1] (setting [10]) stood at 287. For the same compound, the “Inhibition of PLpro cleavage of the substrate (gel-based)” value at SARS-CoV-2 PLpro [2] is “show inhibition; also recorded: strongly inhibited”. Further, the “Inhibition of 3CLpro activity (gel-based)” value on 3CLpro (nsp5) (3 and 10 µM compound) is reported as “did not inhibit”. At SARS-CoV-2 PLpro [3], the “Inhibition of K48-linked Ub3 cleavage (DUB activity)” value is reported as “moderate inhibition; also recorded: moderately”. The “Inhibition of pro-ISG15 cleavage (deISGylating activity)” value at SARS-CoV-2 PLpro [4] is “moderate inhibition”. Moreover, the EC50 with SARS-CoV-2 (setting [11]) was determined as 20 µM; with SARS-CoV-2 (Severe acute respiratory syndrome coronavirus 2, Vero C1008, VERO E6 cells, compound plus 0.5 µM remdesivir, read-out: EC50 viral proliferation with remdesivir), 22.7 µM. Besides, in the series on VERO E6 cells, the Cytotoxicity result is “some cell toxicity at higher concentrations”.

`O=C1c2ccccc2-c2nc3nnnn3nc21` [PDK1/Akt/Flt Dual Pathway Inhibitor] registered an IC50 in series [1] of 0.265 µM. In series [1] (listed as PDK/Akt/Flt dual pathway inhibitor), the IC50 is 0.26 µM. Further, the Z score in series [1] (screen hits, Table 1) is given as −14.53. The “Inhibition (%) 1.25 µM” value in series [1] (setting [7]) came out at 89%. For the same compound, the “slope value (of slope value/control) 1.25 µM” value in series [1] (setting [8]) came to 50. Further, the “Inhibition (%) 3.75 µM” value in series [1] (setting [9]) stood at 100%. The “slope value (of slope value/control) 3.75 µM” value in series [1] (setting [10]) was determined as 0. For the same compound, in series [1] (screen, Table S1), the Z score is listed as -14.531, the “Normalized activity High (3.75 µM)” value is -0.02621 and the “Normalized activity Low (1.25µM)” value was 0.111. Further, the “Inhibition of PLpro cleavage of the substrate (gel-based)” value on SARS-CoV-2 PLpro [2] is listed as “show inhibition; also recorded: strongly inhibited”. Further, the remaining activity at 1.25 µM in series [5] (Well no.=2319) came out at 11.1%. In addition, in series [6] (Well no.=2319), the remaining activity at 3.75 µM was -2.62%.

As for `CC(C)=CC[C@@H](O)C1=CC(=O)c2c(O)ccc(O)c2C1=O` [shikonin], the “Inhibition of K48-linked Ub3 cleavage (DUB activity)” value at SARS-CoV-2 PLpro [3] was “did not inhibit and not”. Moreover, on SARS-CoV-2 PLpro [4], the “Inhibition of pro-ISG15 cleavage (deISGylating activity)” value was “did not inhibit”. Further, the remaining activity at 1.25 µM in [5] (Well no.=3172) is 86.4%; in [5] (Well no.=6398), 96.8%. For the same compound, the remaining activity at 3.75 µM in series [6] (Well no.=3172) is 82.5%; in series [6] (Well no.=6398), 92.6%.

As to `CCCn1c(=O)c2[nH]c(-c3ccc(S(=O)(=O)O)cc3)nc2n(CCC)c1=O` [1,3-Dipropyl-8-p-sulfophenylxanthine], in [1] (screen, Table S1), the Z score is reported as -14.155, the “Normalized activity High (3.75 µM)” value is recorded as 0 and the “Normalized activity Low (1.25µM)” value was 0.885.

`Cc1ccc(NC2=CC(=O)c3sc(C)nc3C2=O)cc1` [Cdk4 Inhibitor III]: the IC50 in [1] is 0.39 µM and 0.393 µM. The compound further registered a Z score in series [1] (screen hits, Table 1) of −5.34. In series [1] (setting [7]), the “Inhibition (%) 1.25 µM” value was 19%. Also, the “slope value (of slope value/control) 1.25 µM” value in series [1] (setting [8]) is given as 367. Besides, the “Inhibition (%) 3.75 µM” value in [1] (setting [9]) amounted to 39%. For the same compound, the “slope value (of slope value/control) 3.75 µM” value in series [1] (setting [10]) was 302. In addition, the “Inhibition of PLpro cleavage of the substrate (gel-based)” value on SARS-CoV-2 PLpro [2] is given as “show inhibition; also recorded: strongly inhibited”. For the same compound, the “Inhibition of 3CLpro activity (gel-based)” value on 3CLpro (nsp5) (3 and 10 µM compound) is “did not inhibit”. In the series with SARS-CoV-2 (VERO E6 cells, compound alone, read-out: EC50 viral proliferation), the EC50 amounted to 3.4 µM. Further, the Cytotoxicity result in the series with VERO E6 cells is on record as “cytotoxic in the low micromolar range”. In addition, the remaining activity at 1.25 µM in [5] (Well no.=2408) stood at 81.1%. For the same compound, the remaining activity at 3.75 µM in [6] (Well no.=2408) is 61.4%.

In the case of `O=C(O)c1cccc(O)c1O` [Pyrocatechuic acid], in [1] (screen hits, Table 1), the Z score was −6.846. For the same compound, the “Inhibition (%) 1.25 µM” value in series [1] (setting [7]) worked out at 0%. Further, the “slope value (of slope value/control) 1.25 µM” value in [1] (setting [8]) amounted to 453. For the same compound, the “Inhibition (%) 3.75 µM” value in series [1] (setting [9]) is 49%. The “slope value (of slope value/control) 3.75 µM” value in series [1] (setting [10]) stood at 226. On SARS-CoV-2 PLpro [2], the “Inhibition of PLpro cleavage of the substrate (gel-based)” value was “did not inhibit”. Besides, the remaining activity at 1.25 µM in series [5] (Well no.=6595) came to 103%. In addition, the remaining activity at 3.75 µM in [6] (Well no.=6595) came out at 51%.

With `C[C@H](CCC(=O)O)[C@H]1CC[C@H]2[C@@H]3[C@@H](O)C[C@@H]4C[C@H](O)CC[C@]4(C)[C@H]3CC[C@]12C` [Ursodiol], in [1], the “slope value (of slope value/control) 1.25 µM” value is given as 26 (324/440), the “slope value (of slope value/control) 3.75 µM” value is 55 (187/420), the inhibition at 1.25 µM is 26% and the inhibition at 3.75 µM is 55%. For the same compound, the Z score in series [1] (screen hits, Table 1) is given as −7.78. The “Inhibition of PLpro cleavage of the substrate (gel-based)” value at SARS-CoV-2 PLpro [2] is listed as “did not inhibit”. In addition, the remaining activity at 1.25 µM in series [5] (Well no.=8332) worked out at 89.1%. For the same compound, the remaining activity at 3.75 µM in series [6] (Well no.=8332) was determined as 90.6%.

Regarding `Cc1coc2c1C(=O)C(=O)c1c-2ccc2c1CCCC2(C)C` [Tanshinone IIA, tanshinone IIA], the “Inhibition of PLpro cleavage of the substrate (gel-based)” value on SARS-CoV-2 PLpro [2] was “inhibited cleavage, but only at the higher concentration”; at SARS-CoV-2 PLpro [2] (listed as tanshinone IIA), “show inhibition”. Also, the “Inhibition of 3CLpro activity (gel-based)” value on 3CLpro (nsp5) is on record as “did not inhibit”. For the same compound, the EC50 in the series with SARS-CoV-2 (setting [11]) amounted to 1150 µM. Further, in the series with PLpro from SARS-CoV-1, the “Inhibition of SARS-CoV-1 PLpro” value is “better inhibitors of this enzyme than dihydrotanshinone I”. The remaining activity at 1.25 µM in series [5] (Well no.=3178) is 105%; in series [5] (Well no.=4084) it was 99.4%. Further, the values for the remaining activity at 3.75 µM in [6] (Well no.=3178) and in series [6] (Well no.=4084) were 105% and 89.9%, respectively.

Turning to `C[C@H]1COC2=C1C(=O)C(=O)c1c2ccc2c1CCCC2(C)C` [Cryptotanshinone, cryptotanshinone], on SARS-CoV-2 PLpro [2], the “Inhibition of PLpro cleavage of the substrate (gel-based)” value is “show inhibition; also recorded: inhibited cleavage, but only at the higher concentration”. In addition, at 3CLpro (nsp5) (3 and 10 µM compound), the “Inhibition of 3CLpro activity (gel-based)” value was “did not inhibit”. Besides, the EC50 in the series on SARS-CoV-2 (setting [11]) was determined as 223 µM. The “Concentration below which viral growth was not inhibited” value in the series on SARS-CoV-2 (VERO E6 cells) is on record as not below 200 µM. Further, the “Inhibition of SARS-CoV-1 PLpro” value in the series with PLpro from SARS-CoV-1 was “better inhibitors of this enzyme than dihydrotanshinone I”. The remaining activity at 1.25 µM in [5] (Well no.=3557) is 100%. Moreover, in series [6] (Well no.=3557), the remaining activity at 3.75 µM was found to be 103%.

Turning to `CN1CCN2c3ccccc3Cc3ccccc3C2C1` (stereo not drawn) [Mianserin.HCl], the remaining activity at 1.25 µM in series [5] (Well no.=1540) turned out to be 100%. In [6] (Well no.=1540), the remaining activity at 3.75 µM worked out at 101%.

Take `O=C(O)Cc1c[nH]c2ccc(O)cc12` [5-Hydroxyindole-3-acetic acid]: the remaining activity at 1.25 µM in series [5] (Well no.=5974) was 102%; in series [5] (Well no.=7351) it was 103%. Besides, the remaining activity at 3.75 µM in series [6] (Well no.=5974) stood at 101%; in series [6] (Well no.=7351), 102%.

As to `C[C@@H](c1ncncc1F)[C@](O)(Cn1cncn1)c1ccc(F)cc1F` [Voriconazole], the remaining activity at 1.25 µM in [5] (Well no.=4857) was found to be 101%. Also, in series [6] (Well no.=4857), the remaining activity at 3.75 µM is 103%.
